Experimental data as given in patent US12611387B2, “Compound and composition for inducing neuroprotection” (REST THERAPEUTICS, priority 2020, dated 2026).

Legend:
[1] = test system: viable neurons in the CA1 area of the hippocampus; assay: Quantification of viable neurons in area CA1 (cresyl violet); format: in vivo; details: 0.3 mg/Kg i.p., oligomer-intoxicated mice (not shown)
Protocol: The neuroprotective effect of the compounds, i.e. the ability thereof to protect cells from Aβ25-35 oligomer neurotoxicity and neurodegeneration, is also tested (FIG. 10). The test compounds are thus administered on the same day as the injection of the Aβ25-35 oligomers and are continued to be administered on a daily basis up to day 7 after the injection of the oligomers, at which time the mice are subjected to the YMT, PAT, MWT or ORT. The brain's anatomy is analysed and neuronal cells are counted by immunohistochemistry on mice sacrificed at D13. The biochemical analyses for the quantification of markers of oxidative stress and apoptosis were carried out at D16 on a group of mice that had been subjected to the WMT (FIG. 10). […]
In Alzheimer's patients, a decrease in neurons has been reported in the CA1 region (and to a lesser extent in the CA3 region). […] In order to quantify viable neurons in the CA1 region of the mouse hippocampus, the corresponding sections were stained with cresyl violet (0.12%, Sigma-Aldrich), dehydrated with ethanol, treated with xylene and mounted with a mounting medium (Mountex medium, BDH Laboratory Supplies) and dried at 24° C. at ambient temperature. The images were recorded and analysed (Nanozoomer virtual microscopy system, Hamamatsu, Massy, France). […]

[2] = test system: Aβ25-35 oligomer-intoxicated mice; assay: Hamlet test, symptomatic treatment; format: in vivo, C57Bl/6j mice; details: 0.3 mg/Kg, symptomatic design
Protocol: (§1) The test compounds were tested for their ability to decrease the cognitive symptoms of Aβ25-35 oligomer-induced neurodegeneration, i.e. their ability to provide symptomatic anti-amnestic treatment (FIGS. 1A and 1B). In brief, to test the symptomatic effect of the test compounds, they were administered 8 days after the icy injection of the Aβ25-35 oligomers, 30 minutes before the YMT and PAT memory tests were conducted or 30 minutes before the test, but after the training session, in the case of the MWT or ORT (FIG. 1A). […]
The Hamlet Test® device, with a diameter of 1.2 m, comprises a central square (the agora) and streets that radiate out therefrom and lead to functionalised compartments or houses that allow a physiological function to be met or that enrich the environment. The walls and streets of the hamlet were made of infrared-transparent PVC, the test room was uniformly lit (200 Lux), infrared diodes were placed under the floor of the hamlet and an infrared camera recorded the behaviour of the animals. […]
This test was described by Crouzier et al. (2018 a and b). […] The exploratory behaviour was recorded alongside the time taken to find the Drink house and the number of errors made (number of entries into a street not leading to the Drink house). […] A disorientation index (DI) was calculated for each variable (time to find the drink house, number of errors): […]

[3] = test system: Aβ25-35 oligomer-intoxicated mice; assay: Object recognition test, symptomatic treatment; format: in vivo; details: symptomatic design (not shown)
Protocol: as §1, with “1A). The Hamlet Test® (FIG. 1B) involves a 2-week training session (4 hr/day) followed by a test (max. 10 min) under water deprivation conditions and under normal conditions; the Aβ25-35 peptide is injected after this first test. After one week, the compounds are administered and a second test under water deprivation conditions and under normal conditions is performed 30 min after injection.” for “1A).”
This test is used to assess recognition memory abilities (Rodriguez Cruz et al., 2017; Maurice et al., 2019). […] The exploratory behaviour, activity and position of the animal's nose were recorded for 10 minutes (Nosetrack® software, Viewpoint, Lissieu, France). The number of contacts with the objects and the duration thereof were measured. […] The exploratory behaviour of each mouse was then also recorded for 10 minutes. […]
An exploration index was calculated using to the following formula: […]

## NC12CC3CC(C1)CC(CCF)(C3)C2 [FENM, 3-(2-fluoroethyl)adamantan-1-amine]
[1]
  number of viable neurons in the CA1 area: maintained the number of viable neurons in the CA1 area of the hippocampus
  thickness of the CA1 area: counteracted the increase in thickness of this area
[2]
  disorientation index calculated for errors: reduced to the level of those of the untreated, non-intoxicated mice
  disorientation index calculated for latency: reduced to the level of those of the untreated, non-intoxicated mice
[3]
  anti-amnestic effect in object recognition: confirmed
